Source: patent US10077243B2, “Compounds for treating disorders mediated by metabotropic glutamate receptor 5, and methods of use thereof” (Sunovion Pharmaceuticals Inc., priority 2009, dated 2018)

Molecular target: T1, human mGluR5 (Homo sapiens, UniProt P41594)
T1 construct: expressed in transfected cells; host or cells: HEK293 cells stably expressing rat GLAST (EAAT1), stably transfected with pcDNAzeo3.1 carrying synthetic human mGluR5 DNA; zeocin-selected single clones
Assay: In vitro cell-based FLIPR calcium assay for positive modulation of the activation of mGluR5 by glutamate (PAM EC50)
Settings: HEK293/GLAST cells expressing recombinant human mGluR5; FLIPR calcium signal; glutamate added at its EC20; read-out: mGluR5 PAM EC50
How it was run: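 PAM activity was measured as FLIPR calcium fluorescence in the presence of an EC20 glutamate concentration determined daily from a glutamate concentration-response curve. Cells were HEK293/GLAST clones expressing mGluR5, dye-loaded at 25 °C for 45–60 min in HEPES-buffered HBSS; vehicle control was 0.3% DMSO.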

T1 sequence (P41594 21-1212): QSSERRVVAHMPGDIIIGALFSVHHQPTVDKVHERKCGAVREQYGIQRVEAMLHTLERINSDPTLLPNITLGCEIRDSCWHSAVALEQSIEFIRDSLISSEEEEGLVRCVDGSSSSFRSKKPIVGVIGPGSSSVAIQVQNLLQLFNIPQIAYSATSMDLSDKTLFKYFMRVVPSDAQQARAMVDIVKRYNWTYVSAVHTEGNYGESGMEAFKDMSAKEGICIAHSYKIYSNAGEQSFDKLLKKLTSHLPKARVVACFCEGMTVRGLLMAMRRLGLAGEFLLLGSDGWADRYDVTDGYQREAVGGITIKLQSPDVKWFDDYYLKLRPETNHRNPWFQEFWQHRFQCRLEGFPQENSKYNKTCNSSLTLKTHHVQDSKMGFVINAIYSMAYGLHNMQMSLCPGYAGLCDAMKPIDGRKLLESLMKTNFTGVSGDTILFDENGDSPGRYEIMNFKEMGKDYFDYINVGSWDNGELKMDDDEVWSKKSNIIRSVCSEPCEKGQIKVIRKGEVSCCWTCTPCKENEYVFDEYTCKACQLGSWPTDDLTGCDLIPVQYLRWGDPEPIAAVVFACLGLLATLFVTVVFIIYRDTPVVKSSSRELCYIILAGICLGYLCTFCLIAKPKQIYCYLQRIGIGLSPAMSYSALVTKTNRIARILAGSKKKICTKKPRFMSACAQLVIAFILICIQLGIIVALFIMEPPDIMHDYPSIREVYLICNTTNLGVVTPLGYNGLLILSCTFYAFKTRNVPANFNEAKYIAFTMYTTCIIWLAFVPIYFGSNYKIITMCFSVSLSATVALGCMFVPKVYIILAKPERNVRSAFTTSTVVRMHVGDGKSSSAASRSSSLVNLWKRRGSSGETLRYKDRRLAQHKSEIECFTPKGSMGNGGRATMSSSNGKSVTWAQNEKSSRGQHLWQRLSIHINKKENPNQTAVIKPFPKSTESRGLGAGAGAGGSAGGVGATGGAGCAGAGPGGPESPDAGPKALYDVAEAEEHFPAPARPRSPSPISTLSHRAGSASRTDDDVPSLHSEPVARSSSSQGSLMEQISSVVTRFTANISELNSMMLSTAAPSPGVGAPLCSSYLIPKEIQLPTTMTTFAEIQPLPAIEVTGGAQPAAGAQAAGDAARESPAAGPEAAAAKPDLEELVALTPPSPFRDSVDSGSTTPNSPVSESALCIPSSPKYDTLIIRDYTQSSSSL

SMILES	EC50 [µM]
CC1(C)CCc2nc3cc(C#Cc4cccc(F)c4)ccc3c(=O)n2C1 [Example 4.14, 3-((3-fluorophenyl)ethynyl)-8,8-dimethyl-8,9-dihydro-6H-pyrido[2,1-b]quinazolin-11(7H)-one]	< 0.01
O=c1c2ccc(C#Cc3ccccn3)cc2nc2n1CCC1(CC2)CC1 [Example 6.51, 3-(pyridin-2-ylethynyl)-9,10-dihydro-6H-spiro[azepino[2,1-b]quinazoline-8,1′-cyclopropan]-12(7H)-one]	< 0.01
CN1CCCC1Cn1cnc2cc(C#Cc3cccc(F)c3)ccc2c1=O (stereo not drawn) [Example 1.21, 7-((3-fluorophenyl)ethynyl)-3-((1-methylpyrrolidin-2-yl)methyl)quinazolin-4(3H)-one]	0.1 to 0.3
O=C(Nc1ccc(F)cc1)c1ccc2c(c1)N=C1CCCCCCN1C2 [Example 26.1, N-(4-fluorophenyl)-7,8,9,10,11,13-hexahydro-6H-azocino[2,1-b]quinazoline-3-carboxamide]	0.3 to 1
O=c1c2ccc(C#Cc3cccc(F)c3)cc2nc2n1CCN(CCO)C2 [Example 5.8, 9-((3-fluorophenyl)ethynyl)-2-(2-hydroxyethyl)-3,4-dihydro-1H-pyrazino[2,1-b]quinazolin-6(2H)-one]	0.03 to 0.1
COC1(C)CCc2nc3cc(C#Cc4ccccn4)ccc3c(=O)n2CC1 (stereo not drawn) [Example 6.50, 8-methoxy-8-methyl-3-(pyridin-2-ylethynyl)-7,8,9,10-tetrahydroazepino[2,1-b]quinazolin-12(6H)-one]	0.03 to 0.1
CC1CCc2nc3cc(C#Cc4ccccn4)ccc3c(=O)n21 (stereo not drawn) [Example 3.14, 1-methyl-6-(pyridin-2-ylethynyl)-2,3-dihydropyrrolo[2,1-b]quinazolin-9(1H)-one]	0.1 to 0.3
CCCCN1CCn2c(nc3cc(C#Cc4cccc(F)c4)ccc3c2=O)C1 [Example 5.11, 2-butyl-9-((3-fluorophenyl)ethynyl)-3,4-dihydro-1H-pyrazino[2,1-b]quinazolin-6(2H)-one]	0.1 to 0.3
COC(C)c1nc2cc(C#Cc3cccc(F)c3)ccc2c(=O)n1C (stereo not drawn) [Example 2.11, 7-((3-fluorophenyl)ethynyl)-2-(1-methoxyethyl)-3-methylquinazolin-4(3H)-one]	< 0.01
O=c1c2ccc(C#Cc3ccc(F)cc3)cc2ncn1Cc1ccco1 [Example 1.14, 7-((4-fluorophenyl)ethynyl)-3-(furan-2-ylmethyl)quinazolin-4(3H)-one]	0.3 to 1
COCCc1cnc2cc(C#Cc3ccc(F)cc3)ccn2c1=O [Example 13.11, 8-((4-fluorophenyl)ethynyl)-3-(2-methoxyethyl)-4H-pyrido[1,2-a]pyrimidin-4-one]	0.01 to 0.03
O=C(Cc1ccccc1)c1ccc2c(=O)n3c(nc2c1)CCCCC3 [Example 21.3, 3-(2-phenylacetyl)-7,8,9,10-tetrahydroazepino[2,1-b]quinazolin-12(6H)-one]	0.1 to 0.3
CC1(C)CCc2nc3cc(C#Cc4ccccn4)cnc3c(=O)n2C1 [Example 11.5, 8,8-dimethyl-3-(pyridin-2-ylethynyl)-8,9-dihydro-6H-dipyrido[1,2-a:3′,2′-d]pyrimidin-11(7H)-one]	0.1 to 0.3
O=c1c2ccc(C#Cc3cccc(F)c3)cc2nc2n1CCC=C2 [Example 4.20, 3-((3-fluorophenyl)ethynyl)-8H-pyrido[2,1-b]quinazolin-11(9H)-one]	0.01 to 0.03
CC1CCc2c(nc3cc(C#Cc4ccccn4)ccn3c2=O)C1 (stereo not drawn) [Example 15.2, 3-methyl-7-(pyridin-2-ylethynyl)-3,4-dihydro-1H-pyrido[2,1-b]quinazolin-11(2H)-one]	< 0.01
N#Cc1ccc(C#Cc2ccc3c(=O)n4c(nc3c2)CCC2(CC4)OCCO2)cc1 [Example 7.39]	0.3 to 1
O=c1c2ccc(C#Cc3ccccn3)cc2nc2n1CC(CO)C2 (stereo not drawn) [Example 3.18, 2-(hydroxymethyl)-6-(pyridin-2-ylethynyl)-2,3-dihydropyrrolo[2,1-b]quinazolin-9(1H)-one]	0.1 to 0.3
Cc1scnc1C#Cc1ccc2c(=O)n3c(nc2c1)CCC1(CC3)OCCO1 [Example 7.63]	0.3 to 1
O=c1c2ccc(C#Cc3cccc(F)c3)cc2nc2n1CCC(O)CC2 (stereo not drawn) [Example 6.15, 3-((3-fluorophenyl)ethynyl)-8-hydroxy-7,8,9,10-tetrahydroazepino[2,1-b]quinazolin-12(6H)-one]	< 0.01
COCCn1cnc2cc(C#Cc3ccc(F)cc3)ccc2c1=O [Example 1.12, 7-((4-fluorophenyl)ethynyl)-3-(2-methoxyethyl)quinazolin-4(3H)-one]	0.03 to 0.1
Cc1cnc(NC(=O)c2ccc3c(=O)n4c(nc3c2)C(C)CCCCC4)s1 (stereo not drawn) [Example 25.3, 6-methyl-N-(5-methylthiazol-2-yl)-13-oxo-7,8,9,10,11,13-hexahydro-6H-azocino[2,1-b]quinazoline-3-carboxamide]	0.01 to 0.03

SMILES	EC50 [µM]
CC1Cc2nc3cc(C#Cc4cccc(F)c4)ccc3c(=O)n2C1 (stereo not drawn) [Example 3.8]	< 0.01
CN1CCCCC12Cc1nc3cc(C#Cc4cccc(F)c4)ccc3c(=O)n1C2 (stereo not drawn) [Example 3.16, 6′-((3-fluorophenyl)ethynyl)-1-methyl-1′H-spiro[piperidine-2,2′-pyrrolo[2,1-b]quinazolin]-9′(3′ H)-one]	0.1 to 0.3
O=c1c2ccc(C#Cc3ccccn3)cc2nc2n1CC1CCCN1CC2 (single isomer, unassigned) [Example 9.4a/9.4b faster moving enantiomer (fraction 1), 9-(pyridin-2-ylethynyl)-2,3,5,6,14,14a-hexahydropyrrolo[2′,1′:3,4][1,4]diazepino[7,1-b]quinazolin-12(1H)-one]	0.03 to 0.1
Cc1ccnc(C#Cc2ccc3c(=O)n4c(nc3c2)CCC2(CC4)OCCO2)c1 [Example 7.48]	0.03 to 0.1
O=c1c2c(nc3cc(C#Cc4cccnc4)ccn13)CCCCCC2 [Example 17.3, 3-(pyridin-3-ylethynyl)-8,9,10,11-tetrahydro-6H-cycloocta[d]pyrido[1,2-a]pyrimidin-12(7H)-one]	< 0.01
CC1Cc2nc3cc(/C=C/c4ccccc4)ccc3c(=O)n2C1 (stereo not drawn) [Example 20.4, (E)-2-methyl-6-styryl-2,3-dihydropyrrolo[2,1-b]quinazolin-9(1H)-one]	0.03 to 0.1
CCC1CCCn2c1nc1cc(C#Cc3cccc(F)c3)ccc1c2=O (stereo not drawn) [Example 4.8, 6-ethyl-3-((3-fluorophenyl)ethynyl)-8,9-dihydro-6H-pyrido[2,1-b]quinazolin-11(7H)-one]	0.1 to 0.3
CCOC(C)c1cnc2cc(C#Cc3cccc(F)c3)ccn2c1=O (stereo not drawn) [Example 13.2, 3-(1-ethoxyethyl)-8-((3-fluorophenyl)ethynyl)-4H-pyrido[1,2-a]pyrimidin-4-one]	< 0.01
CC(C)CC1Cc2nc3cc(C#Cc4cccc(F)c4)ccc3c(=O)n2C1 (stereo not drawn) [Example 3.9, 6-((3-fluorophenyl)ethynyl)-2-isobutyl-2,3-dihydropyrrolo[2,1-b]quinazolin-9(1H)-one]	0.01 to 0.03
O=c1c2ccc(C#Cc3ccccn3)cc2nc2n1CC1CCCN1C2 (stereo not drawn) [Example 5.22, 8-(pyridin-2-ylethynyl)-2,3,13,13a-tetrahydro-1H-pyrrolo[1′,2′:4,5]pyrazino[2,1-b]quinazolin-11(5H)-one]	0.03 to 0.1
O=c1c2ccc(C#Cc3ccc(F)cc3)cc2nc2n1CCOCC2 [Example 6.1, 8-((4-fluorophenyl)ethynyl)-4,5-dihydro-1H-[1,4]oxazepino[5,4-b]quinazolin-11(2H)-one]	< 0.01
O=c1c2ccc(C#Cc3cccc(F)c3)cc2nc2n1CCN(C1CCOC1)CC2 (stereo not drawn) [Example 8.13, 8-((3-fluorophenyl)ethynyl)-3-(tetrahydrofuran-3-yl)-2,3,4,5-tetrahydro-[1,4]diazepino[7,1-b]quinazolin-11(1H)-one acetonitrile]	0.1 to 0.3
CC1CCn2c(nc3cc(C#Cc4cccc(F)c4)ccc3c2=O)C1 (stereo not drawn) [Example 4.10, 3-((3-fluorophenyl)ethynyl)-7-methyl-8,9-dihydro-6H-pyrido[2,1-b]quinazolin-11(7H)-one]	< 0.01
CC1CCCn2c(nc3cc(C#Cc4ccccn4)ccc3c2=O)C1 (stereo not drawn) [Example 6.36, 7-methyl-3-(pyridin-2-ylethynyl)-7,8,9,10-tetrahydroazepino[2,1-b]quinazolin-12(6H)-one]	0.01 to 0.03
COC1(C)CCc2nc3cc(C#Cc4ccccn4)ccc3c(=O)n2CC1 (single isomer, unassigned) [Example 6.50a/6.50b slower moving enantiomer (fraction 2), 8-methoxy-8-methyl-3-(pyridin-2-ylethynyl)-7,8,9,10-tetrahydroazepino[2,1-b]quinazolin-12(6H)-one]	0.01 to 0.03
COCC1CCc2nc3cc(C#Cc4cccc(F)c4)ccc3c(=O)n2CC1 (stereo not drawn) [Example 6.24, 3-((3-fluorophenyl)ethynyl)-8-(methoxymethyl)-7,8,9,10-tetrahydroazepino[2,1-b]quinazolin-12(6H)-one]	0.01 to 0.03
O=c1c2ccc(C#Cc3ccncc3F)cc2nc2n1CCC1(CC2)OCCO1 [Example 7.16]	0.1 to 0.3
CCC1CCc2nc3cc(C#Cc4ccc(F)cc4)ccc3c(=O)n2CC1 (stereo not drawn) [Example 6.12, 8-ethyl-3-((4-fluorophenyl)ethynyl)-7,8,9,10-tetrahydroazepino[2,1-b]quinazolin-12(6H)-one]	< 0.01
CC1CCc2nc3cc(C#Cc4ccccn4)ccc3c(=O)n2C1 (stereo not drawn) [Example 4.12, 8-methyl-3-(pyridin-2-ylethynyl)-8,9-dihydro-6H-pyrido[2,1-b]quinazolin-11(7H)-one]	0.01 to 0.03
O=c1c2ccc(C#Cc3cccc(F)c3)cc2nc2n1CCOC2 [Example 4.1, 9-((3-fluorophenyl)ethynyl)-3,4-dihydro-[1,4]oxazino[3,4-b]quinzolin-6(1H)-one]	< 0.01
CC1(C)CCn2c(nc3cc(/C=C/c4cccc(C#N)n4)ccc3c2=O)C1 [Example 20.9, (E)-6-(2-(7,7-dimethyl-11-oxo-7,8,9,11-tetrahydro-6H-pyrido[2,1-b]quinazolin-3-yl)vinyl)picolinonitrile]	0.1 to 0.3
